Common to all, as to format: biochemical
The target in one experiment is phosphor-Axl (Homo sapiens (Human), UniProt P30530). Kind of experiment: TAM Enzymatic Assay (HTRF), Axl. The settings on record: recombinant autophosphorylated Axl, 60 min, room temperature.
The next experiment deals with c-Mer (Homo sapiens (Human), UniProt Q12866). Kind of experiment: TAM Enzymatic Assay (HTRF), Mer. The settings on record: 60 min, room temperature. In a few lines:
(§1)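 HTRF kinase assay in 50 mM HEPES pH 7.5, 10 mM MgCl2, 1 mM EGTA, 0.01% NP-40, 2 mM DTT; compound in DMSO pre-dispensed, enzyme added, reaction started with substrate, 60 min at room temperature in the dark.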

The target of a further experiment is Tyro3 (Homo sapiens (Human), UniProt Q06418). Nature of the experiment: TAM Enzymatic Assay (HTRF), Tyro3. The settings on record: Tyro3, 60 min, room temperature. In a few lines: as §1

Each structure is given as a SMILES string.

Tyro3, sequence (Q06418 41-890): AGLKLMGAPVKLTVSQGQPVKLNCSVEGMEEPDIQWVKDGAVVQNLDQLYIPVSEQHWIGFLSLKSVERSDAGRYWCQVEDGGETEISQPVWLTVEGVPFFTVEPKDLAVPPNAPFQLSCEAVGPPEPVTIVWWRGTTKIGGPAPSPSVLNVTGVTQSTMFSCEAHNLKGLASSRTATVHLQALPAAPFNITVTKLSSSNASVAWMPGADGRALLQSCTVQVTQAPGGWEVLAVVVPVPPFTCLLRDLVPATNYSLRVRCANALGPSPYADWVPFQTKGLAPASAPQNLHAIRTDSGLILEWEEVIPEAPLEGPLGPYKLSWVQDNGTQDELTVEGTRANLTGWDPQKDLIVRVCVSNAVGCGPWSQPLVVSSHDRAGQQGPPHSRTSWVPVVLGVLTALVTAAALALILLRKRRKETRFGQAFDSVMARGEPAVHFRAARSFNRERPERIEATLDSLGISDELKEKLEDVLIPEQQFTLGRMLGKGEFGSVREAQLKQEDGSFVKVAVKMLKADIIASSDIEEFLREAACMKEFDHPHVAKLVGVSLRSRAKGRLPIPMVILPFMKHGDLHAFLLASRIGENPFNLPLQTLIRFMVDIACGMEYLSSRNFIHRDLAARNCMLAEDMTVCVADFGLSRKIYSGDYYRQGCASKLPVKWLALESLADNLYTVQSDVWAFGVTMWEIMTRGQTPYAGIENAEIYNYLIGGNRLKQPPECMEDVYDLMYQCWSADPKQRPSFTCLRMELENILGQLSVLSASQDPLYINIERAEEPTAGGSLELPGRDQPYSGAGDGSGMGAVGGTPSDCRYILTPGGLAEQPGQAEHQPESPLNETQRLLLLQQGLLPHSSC
c-Mer, sequence (Q12866 21-999): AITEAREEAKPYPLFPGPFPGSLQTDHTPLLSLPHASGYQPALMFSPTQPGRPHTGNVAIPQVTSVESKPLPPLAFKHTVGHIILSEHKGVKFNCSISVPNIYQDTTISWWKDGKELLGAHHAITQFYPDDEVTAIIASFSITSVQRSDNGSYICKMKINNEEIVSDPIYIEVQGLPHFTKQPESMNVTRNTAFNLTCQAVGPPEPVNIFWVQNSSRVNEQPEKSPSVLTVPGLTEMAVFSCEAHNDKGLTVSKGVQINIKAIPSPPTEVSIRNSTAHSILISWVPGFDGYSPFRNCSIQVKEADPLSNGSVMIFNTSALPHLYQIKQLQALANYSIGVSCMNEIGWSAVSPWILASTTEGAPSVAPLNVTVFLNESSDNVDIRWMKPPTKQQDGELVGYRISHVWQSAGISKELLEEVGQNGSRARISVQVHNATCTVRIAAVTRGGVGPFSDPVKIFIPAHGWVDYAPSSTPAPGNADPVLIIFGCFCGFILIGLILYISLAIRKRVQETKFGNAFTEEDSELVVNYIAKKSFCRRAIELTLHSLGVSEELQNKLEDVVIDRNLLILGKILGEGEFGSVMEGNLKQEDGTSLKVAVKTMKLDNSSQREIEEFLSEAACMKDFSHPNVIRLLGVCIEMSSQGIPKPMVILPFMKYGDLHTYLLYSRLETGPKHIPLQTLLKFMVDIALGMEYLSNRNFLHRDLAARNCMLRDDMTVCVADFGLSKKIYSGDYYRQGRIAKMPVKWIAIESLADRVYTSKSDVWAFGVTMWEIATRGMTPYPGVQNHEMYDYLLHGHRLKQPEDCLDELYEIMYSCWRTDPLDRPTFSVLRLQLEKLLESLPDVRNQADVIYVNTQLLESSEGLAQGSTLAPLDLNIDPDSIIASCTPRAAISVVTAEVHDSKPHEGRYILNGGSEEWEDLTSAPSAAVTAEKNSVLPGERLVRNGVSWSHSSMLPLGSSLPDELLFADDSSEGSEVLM
phosphor-Axl, sequence (P30530 26-894): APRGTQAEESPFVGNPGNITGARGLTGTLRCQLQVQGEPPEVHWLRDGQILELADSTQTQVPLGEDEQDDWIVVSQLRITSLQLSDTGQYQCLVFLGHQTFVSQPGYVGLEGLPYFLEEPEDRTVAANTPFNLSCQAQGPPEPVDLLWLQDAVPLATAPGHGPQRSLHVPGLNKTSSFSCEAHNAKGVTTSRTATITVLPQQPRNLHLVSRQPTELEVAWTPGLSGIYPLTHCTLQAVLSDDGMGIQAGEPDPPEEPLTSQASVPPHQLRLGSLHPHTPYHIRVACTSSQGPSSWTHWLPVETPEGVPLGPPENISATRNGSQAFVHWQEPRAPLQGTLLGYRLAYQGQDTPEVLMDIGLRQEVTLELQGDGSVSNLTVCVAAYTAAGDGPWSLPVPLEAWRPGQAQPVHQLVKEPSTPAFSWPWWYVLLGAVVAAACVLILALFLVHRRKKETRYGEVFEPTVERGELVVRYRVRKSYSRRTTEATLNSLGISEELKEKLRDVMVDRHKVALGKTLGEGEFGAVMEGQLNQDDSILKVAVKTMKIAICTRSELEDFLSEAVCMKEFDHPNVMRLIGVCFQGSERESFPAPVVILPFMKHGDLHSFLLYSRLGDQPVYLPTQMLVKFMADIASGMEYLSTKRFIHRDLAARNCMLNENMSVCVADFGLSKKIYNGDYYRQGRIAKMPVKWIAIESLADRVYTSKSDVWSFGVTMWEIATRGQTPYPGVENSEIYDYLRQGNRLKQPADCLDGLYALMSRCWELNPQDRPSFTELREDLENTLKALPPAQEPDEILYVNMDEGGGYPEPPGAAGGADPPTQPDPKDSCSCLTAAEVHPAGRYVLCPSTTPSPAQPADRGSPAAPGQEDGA

As for `Cc1c(-c2ncco2)c(=O)c(C(=O)Nc2ccc(-c3cc(C4CCN(C(=O)C(C)C)CC4)n4ncnc(N)c34)cc2)cn1C1CC1` [Example 119, N-(4-(4-Amino-7-(1-isobutyrylpiperidin-4-yl)pyrrolo[2,1-f][1,2,4]triazin-5-yl)phenyl)-1-cyclopropyl-6-methyl-5-(oxazol-2-yl)-4-oxo-1,4-dihydropyridine-3-carboxamide], the IC50 at phosphor-Axl is not above 5 nM; against c-Mer, not above 5 nM; on Tyro3, more than 100 nM.
As for `CC(C)C(=O)N1CCC(c2cc(-c3ccc(NC(=O)c4nn(C(C)C)c(=O)n(-c5ccccc5)c4=O)cc3)c3c(N)ncnn23)CC1` [Example 96, N-(4-(4-Amino-7-(1-isobutyrylpiperidin-4-yl)pyrrolo[1,2-f][1,2,4]triazin-5-yl)phenyl)-2-isopropyl-3,5-dioxo-4-phenyl-2,3,4,5-tetrahydro-1,2,4-triazine-6-carboxamide], the values for the IC50 at phosphor-Axl, against c-Mer and against Tyro3 were not above 5 nM, not above 5 nM and 10 to 100 nM, respectively.
On to `CS(=O)(=O)N1CCC(c2cc(-c3ccc(NC(=O)c4cccn(-c5ccc(F)cc5)c4=O)cc3)c3c(N)ncnn23)CC1` [Example 41, N-(4-{4-Amino-7-[1-(methylsulfonyl)piperidin-4-yl]pyrrolo[2,1-f][1,2,4]triazin-5-yl}phenyl)-1-(4-fluorophenyl)-2-oxo-1,2-dihydropyridine-3-carboxamide], for which the IC50 on phosphor-Axl was not above 5 nM; against c-Mer, not above 5 nM; at Tyro3, 10 to 100 nM.
